Results on 10 compounds are retold here after ChEMBL document CHEMBL5034046, “Discovery of Small-Molecule CD33 Pre-mRNA Splicing Modulators” (ACS Med Chem Lett, 2022).

Data set [1] in a line: Modulation of CD33 pre-mRNA splicing in human K562 cells assessed as induction of exon 2 skipping measured after 18 to 24 hrs by Nano-Luciferase reporter assay. Format: cell-based. A general note: Reporter assays use an easily measured gene product as a stand-in for the process of interest.
The next data set relates to K562. The data set is described as follows: Modulation of CD33 pre-mRNA splicing in human K562 cells assessed as induction of exon 2 skipping at 25 uM measured after 18 to 24 hrs by Nano-Luciferase reporter assay. Format: cell-based. The conditions noted are these: filed as modulator, time 18-24 hrs.
A short description of data set [2]: Modulation of CD33 pre-mRNA splicing in human K562 cells assessed as induction of exon 2 skipping measured after 16 to 24 hrs by Nano-Luciferase counter screen assay. In kind it is cell-based.
The nature of data set [3]: […] level in human THP-1 cell surface incubated for 48 to 72 hrs by high content imaging assay. In kind it is functional.
Data set [4] in a line: […] level in human THP-1 cell surface at top concentration incubated for 48 to 72 hrs by high content imaging assay. Format: functional. The conditions noted are these: time 48-72 hrs.
The nature of data set [5]: Increase in CD11c level in human THP-1 cell surface incubated for 48 to 72 hrs by high content imaging assay. In kind it is functional.
The test system of a further data set is THP-1. The data set is described as follows: Cytotoxicity against human THP-1 cells assessed as reduction in cell viability by DAPI staining based assay. Format: functional.
Data set [6] has as its target Proprotein convertase subtilisin/kexin type 9 (Homo sapiens, UniProt Q8NBP7). The data set is described as follows: Inhibition of PCSK9 translation in human THP-1 cells by AlphaLISA assay. Format: cell-based. A general note: In Alpha technology, singlet oxygen from a donor bead excites a nearby acceptor bead.
Data set [7] in a line: Apparent permeability in MDCK cells. Format: ADME, cell-based, Canis lupus familiaris. To be noted: dog.
Data set [8] in a line: Distribution coefficient, logD of compound at pH 7.4 by shake flask method. Format: physicochemical. To be noted: octanol/water.
The nature of data set [9]: Solubility of compound at pH 7.4. In kind it is physicochemical. The conditions noted are these: buffer.
Data set [10] is described as follows: Cytotoxicity against human THLE cells by ATP depletion assay. In kind it is cell-based.
Data set [11] concerns the target T1, Voltage-gated inwardly rectifying potassium channel KCNH2 (Homo sapiens, UniProt Q12809). The data set is described as follows: Displacement of [3H]-dofetilide from human ERG. For orientation: Displacement assays read how much labelled ligand stays bound in the presence of the test substance.
Data set [12] has as its target T1, Voltage-gated inwardly rectifying potassium channel KCNH2. The data set is described as follows: Inhibition of human ERG.
Data set [13] deals with T2, Alpha-1A adrenergic receptor (Homo sapiens, UniProt P35348).
T2 sequence (P35348 whole entry): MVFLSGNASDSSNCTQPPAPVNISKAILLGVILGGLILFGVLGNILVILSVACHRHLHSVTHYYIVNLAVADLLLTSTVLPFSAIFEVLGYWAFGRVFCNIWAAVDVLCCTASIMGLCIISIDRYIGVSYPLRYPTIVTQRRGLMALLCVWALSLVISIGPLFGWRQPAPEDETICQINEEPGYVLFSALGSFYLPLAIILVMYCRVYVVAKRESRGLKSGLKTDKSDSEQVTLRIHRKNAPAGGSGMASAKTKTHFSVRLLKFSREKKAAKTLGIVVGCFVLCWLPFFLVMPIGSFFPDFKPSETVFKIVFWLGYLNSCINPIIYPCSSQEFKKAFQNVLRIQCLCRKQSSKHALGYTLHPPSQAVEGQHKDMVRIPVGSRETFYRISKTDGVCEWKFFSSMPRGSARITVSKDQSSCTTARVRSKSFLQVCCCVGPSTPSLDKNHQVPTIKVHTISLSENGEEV
The data set is described as follows: Agonist activity at adrenergic alpha-1A receptor (unknown origin) expressed in cells assessed as change in fluorescence measured after 24 hrs by FLIPR assay. In kind it is functional, cell-based.

Data set [14] deals with Beta-2 adrenergic receptor (Homo sapiens, UniProt P07550). The data set is described as follows: Agonist activity at adrenergic beta2 receptor (unknown origin) expressed in cells measured after 90 mins by beta-arrestin recruitment assay. In kind it is functional, cell-based.
The target in the next data set is Cannabinoid receptor 1 (Homo sapiens, UniProt P21554). The data set is described as follows: Agonist activity at cannabinoid receptor 1 (unknown origin) expressed in cells measured after 90 mins by beta-arrestin recruitment assay. Format: functional, cell-based.
Chain of Cannabinoid receptor 1 (P21554 whole entry): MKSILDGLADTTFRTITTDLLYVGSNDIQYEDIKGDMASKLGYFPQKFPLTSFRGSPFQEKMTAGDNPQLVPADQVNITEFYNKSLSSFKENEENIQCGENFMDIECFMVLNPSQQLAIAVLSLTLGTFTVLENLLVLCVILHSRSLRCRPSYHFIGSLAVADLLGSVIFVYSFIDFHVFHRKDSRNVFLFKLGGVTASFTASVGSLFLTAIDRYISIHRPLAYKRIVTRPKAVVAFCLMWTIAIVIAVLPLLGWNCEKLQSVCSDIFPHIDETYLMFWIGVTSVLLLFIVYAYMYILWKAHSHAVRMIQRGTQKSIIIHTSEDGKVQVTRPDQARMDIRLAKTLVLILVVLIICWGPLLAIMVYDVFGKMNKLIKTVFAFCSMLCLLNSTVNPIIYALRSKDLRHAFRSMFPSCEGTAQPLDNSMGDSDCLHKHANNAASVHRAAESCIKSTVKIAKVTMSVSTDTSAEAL
In the next data set the target is D(1A) dopamine receptor (Homo sapiens, UniProt P21728). The data set is described as follows: Agonist activity at dopamine D1 receptor (unknown origin) expressed in cells assessed as change in fluorescence measured after 24 hrs by FLIPR assay. Format: functional, cell-based.
The next data set has as its target Histamine H1 receptor (Homo sapiens, UniProt P35367). The data set is described as follows: Agonist activity at histamine H1 receptor (unknown origin) expressed in cells assessed as change in fluorescence measured after 24 hrs by FLIPR assay. In kind it is functional, cell-based.
The target of data set [15] is 5-hydroxytryptamine receptor 2B (Homo sapiens, UniProt P41595). The data set is described as follows: Agonist activity at serotonin 2B receptor (unknown origin) expressed in cells assessed as change in fluorescence measured after 24 hrs by FLIPR assay. In kind it is functional, cell-based.
Chain of 5-hydroxytryptamine receptor 2B (P41595 whole entry): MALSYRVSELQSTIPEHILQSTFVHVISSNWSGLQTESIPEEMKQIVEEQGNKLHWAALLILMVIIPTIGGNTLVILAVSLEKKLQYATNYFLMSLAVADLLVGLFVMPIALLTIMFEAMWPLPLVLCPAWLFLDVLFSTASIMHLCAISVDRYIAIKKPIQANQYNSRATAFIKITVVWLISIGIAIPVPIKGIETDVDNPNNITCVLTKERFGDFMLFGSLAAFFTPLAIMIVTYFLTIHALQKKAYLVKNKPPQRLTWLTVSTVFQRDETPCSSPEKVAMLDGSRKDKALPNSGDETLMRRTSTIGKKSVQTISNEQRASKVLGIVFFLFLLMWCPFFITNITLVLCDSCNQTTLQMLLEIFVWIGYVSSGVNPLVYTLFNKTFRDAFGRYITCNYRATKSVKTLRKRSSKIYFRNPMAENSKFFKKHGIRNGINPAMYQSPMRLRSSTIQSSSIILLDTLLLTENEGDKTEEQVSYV
Data set [16] deals with Sodium-dependent serotonin transporter (Homo sapiens) (UniProt P31645). The data set is described as follows: Inhibition of serotonin transporter (unknown origin) expressed in cells incubated for 30 mins by amine transporter assay. In kind it is cell-based.
Chain of Sodium-dependent serotonin transporter (Homo sapiens) (P31645 whole entry, looked up): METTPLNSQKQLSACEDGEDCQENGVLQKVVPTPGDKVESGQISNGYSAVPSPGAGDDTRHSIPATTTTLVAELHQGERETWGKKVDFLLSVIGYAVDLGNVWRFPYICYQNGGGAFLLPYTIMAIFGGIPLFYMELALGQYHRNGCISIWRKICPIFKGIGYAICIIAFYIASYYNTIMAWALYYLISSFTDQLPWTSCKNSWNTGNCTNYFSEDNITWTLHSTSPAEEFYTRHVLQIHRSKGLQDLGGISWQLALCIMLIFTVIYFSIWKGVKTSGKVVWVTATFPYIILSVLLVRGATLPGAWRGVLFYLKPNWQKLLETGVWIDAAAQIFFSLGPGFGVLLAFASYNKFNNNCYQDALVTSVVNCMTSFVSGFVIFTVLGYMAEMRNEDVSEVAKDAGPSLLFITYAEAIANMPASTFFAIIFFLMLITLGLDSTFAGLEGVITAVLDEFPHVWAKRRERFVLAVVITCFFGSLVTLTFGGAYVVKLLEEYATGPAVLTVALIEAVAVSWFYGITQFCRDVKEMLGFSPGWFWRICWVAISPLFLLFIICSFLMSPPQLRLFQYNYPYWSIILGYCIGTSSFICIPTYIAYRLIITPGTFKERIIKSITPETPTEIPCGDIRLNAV
The target of data set [17] is Sodium-dependent noradrenaline transporter (Homo sapiens) (UniProt P23975). The data set is described as follows: Inhibition of norepinephrine transporter (unknown origin) expressed in cells incubated for 60 mins by amine transporter assay. Format: cell-based.
Chain of Sodium-dependent noradrenaline transporter (Homo sapiens) (P23975 whole entry): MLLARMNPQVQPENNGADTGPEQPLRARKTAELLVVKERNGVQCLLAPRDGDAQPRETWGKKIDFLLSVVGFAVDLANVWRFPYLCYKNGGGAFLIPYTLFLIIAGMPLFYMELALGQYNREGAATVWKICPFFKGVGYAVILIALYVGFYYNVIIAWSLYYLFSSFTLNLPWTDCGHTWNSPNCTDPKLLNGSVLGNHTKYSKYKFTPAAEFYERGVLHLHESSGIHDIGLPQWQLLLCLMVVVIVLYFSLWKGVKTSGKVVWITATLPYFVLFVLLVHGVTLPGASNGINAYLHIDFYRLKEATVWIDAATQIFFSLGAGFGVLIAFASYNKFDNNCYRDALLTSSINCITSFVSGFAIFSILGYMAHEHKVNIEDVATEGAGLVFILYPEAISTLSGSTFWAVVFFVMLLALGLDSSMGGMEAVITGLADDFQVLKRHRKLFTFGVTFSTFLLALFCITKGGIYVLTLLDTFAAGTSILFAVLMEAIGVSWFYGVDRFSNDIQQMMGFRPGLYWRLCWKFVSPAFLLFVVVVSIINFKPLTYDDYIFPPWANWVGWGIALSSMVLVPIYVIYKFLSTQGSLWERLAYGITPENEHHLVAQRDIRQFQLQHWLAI
Data set [18] has as its target Sodium-dependent dopamine transporter (Homo sapiens) (UniProt Q01959). The data set is described as follows: Inhibition of dopamine transporter (unknown origin) expressed in cells incubated for 60 mins by amine transporter assay. In kind it is cell-based.
In data set [19] the target is T3, Muscarinic acetylcholine receptor M1 (Homo sapiens, UniProt P11229).
T3 sequence (P11229 whole entry): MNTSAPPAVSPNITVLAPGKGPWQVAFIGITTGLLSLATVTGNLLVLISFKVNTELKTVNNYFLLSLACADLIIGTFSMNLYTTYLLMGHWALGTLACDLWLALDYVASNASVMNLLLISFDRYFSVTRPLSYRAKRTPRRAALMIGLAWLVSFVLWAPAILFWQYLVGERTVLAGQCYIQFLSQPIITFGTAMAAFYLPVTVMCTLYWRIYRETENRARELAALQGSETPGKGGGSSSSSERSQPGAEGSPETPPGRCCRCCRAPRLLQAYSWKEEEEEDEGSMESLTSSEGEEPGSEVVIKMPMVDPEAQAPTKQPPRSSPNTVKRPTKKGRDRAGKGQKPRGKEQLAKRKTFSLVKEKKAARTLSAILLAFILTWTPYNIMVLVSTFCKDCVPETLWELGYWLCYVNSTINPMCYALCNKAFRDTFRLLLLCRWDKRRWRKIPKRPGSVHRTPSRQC
The data set is described as follows: Antagonist activity at muscarinic M1 receptor (unknown origin) expressed in cells assessed as change in fluorescence measured after 24 hrs by FLIPR assay. Format: functional, cell-based.

Data set [20] addresses Bromodomain-containing protein 4 (Homo sapiens, UniProt O60885). The data set is described as follows: Inhibition of His-tagged BRD4 (unknown origin) using tetra-acetylated histone H4 peptide as substrate by fluorescent polarization binding assay.
Data set [21] can be described thus: Inhibition of PDE3A1 (unknown origin) assessed as conversion of cAMP to AMP measured after 30 mins by YSi scintillation proximity assay. The arrangement: species or system Homo sapiens.
In data set [22] the target is 3',5'-cyclic-AMP phosphodiesterase 4D (Homo sapiens, UniProt Q08499). The data set is described as follows: Inhibition of PDE4D3 (unknown origin) assessed as conversion of cAMP to AMP measured after 30 mins by YSi scintillation proximity assay.
The target of data set [23] is cGMP-specific 3',5'-cyclic phosphodiesterase (Homo sapiens, UniProt O76074). The data set is described as follows: Inhibition of PDE5A1 (unknown origin) assessed as conversion of cAMP to AMP measured after 30 mins by YSi scintillation proximity assay.

≈ marks a conversion by molar mass, not a printed value.

Chain of Proprotein convertase subtilisin/kexin type 9 (Q8NBP7 31-152 limits assumed): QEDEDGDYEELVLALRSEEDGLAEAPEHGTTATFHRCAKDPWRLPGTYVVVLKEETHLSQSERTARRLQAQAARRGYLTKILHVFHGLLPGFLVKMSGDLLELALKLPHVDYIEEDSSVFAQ
Chain of Proprotein convertase subtilisin/kexin type 9 (Q8NBP7 153-692 limits assumed): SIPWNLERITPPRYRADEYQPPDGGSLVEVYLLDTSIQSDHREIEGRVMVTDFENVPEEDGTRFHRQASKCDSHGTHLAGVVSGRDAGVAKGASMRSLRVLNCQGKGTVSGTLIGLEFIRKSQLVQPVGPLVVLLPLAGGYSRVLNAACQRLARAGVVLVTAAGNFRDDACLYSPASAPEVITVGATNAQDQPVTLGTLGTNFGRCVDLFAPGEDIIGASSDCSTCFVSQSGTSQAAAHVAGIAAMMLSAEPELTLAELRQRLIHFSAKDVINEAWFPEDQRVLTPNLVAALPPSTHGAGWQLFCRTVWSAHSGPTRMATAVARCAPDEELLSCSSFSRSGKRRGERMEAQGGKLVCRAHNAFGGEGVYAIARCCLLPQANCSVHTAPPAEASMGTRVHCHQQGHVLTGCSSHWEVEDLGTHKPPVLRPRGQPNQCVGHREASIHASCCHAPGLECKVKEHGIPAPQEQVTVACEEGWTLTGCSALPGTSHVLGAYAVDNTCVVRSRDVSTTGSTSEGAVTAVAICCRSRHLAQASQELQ
T1 sequence (Q12809 whole entry): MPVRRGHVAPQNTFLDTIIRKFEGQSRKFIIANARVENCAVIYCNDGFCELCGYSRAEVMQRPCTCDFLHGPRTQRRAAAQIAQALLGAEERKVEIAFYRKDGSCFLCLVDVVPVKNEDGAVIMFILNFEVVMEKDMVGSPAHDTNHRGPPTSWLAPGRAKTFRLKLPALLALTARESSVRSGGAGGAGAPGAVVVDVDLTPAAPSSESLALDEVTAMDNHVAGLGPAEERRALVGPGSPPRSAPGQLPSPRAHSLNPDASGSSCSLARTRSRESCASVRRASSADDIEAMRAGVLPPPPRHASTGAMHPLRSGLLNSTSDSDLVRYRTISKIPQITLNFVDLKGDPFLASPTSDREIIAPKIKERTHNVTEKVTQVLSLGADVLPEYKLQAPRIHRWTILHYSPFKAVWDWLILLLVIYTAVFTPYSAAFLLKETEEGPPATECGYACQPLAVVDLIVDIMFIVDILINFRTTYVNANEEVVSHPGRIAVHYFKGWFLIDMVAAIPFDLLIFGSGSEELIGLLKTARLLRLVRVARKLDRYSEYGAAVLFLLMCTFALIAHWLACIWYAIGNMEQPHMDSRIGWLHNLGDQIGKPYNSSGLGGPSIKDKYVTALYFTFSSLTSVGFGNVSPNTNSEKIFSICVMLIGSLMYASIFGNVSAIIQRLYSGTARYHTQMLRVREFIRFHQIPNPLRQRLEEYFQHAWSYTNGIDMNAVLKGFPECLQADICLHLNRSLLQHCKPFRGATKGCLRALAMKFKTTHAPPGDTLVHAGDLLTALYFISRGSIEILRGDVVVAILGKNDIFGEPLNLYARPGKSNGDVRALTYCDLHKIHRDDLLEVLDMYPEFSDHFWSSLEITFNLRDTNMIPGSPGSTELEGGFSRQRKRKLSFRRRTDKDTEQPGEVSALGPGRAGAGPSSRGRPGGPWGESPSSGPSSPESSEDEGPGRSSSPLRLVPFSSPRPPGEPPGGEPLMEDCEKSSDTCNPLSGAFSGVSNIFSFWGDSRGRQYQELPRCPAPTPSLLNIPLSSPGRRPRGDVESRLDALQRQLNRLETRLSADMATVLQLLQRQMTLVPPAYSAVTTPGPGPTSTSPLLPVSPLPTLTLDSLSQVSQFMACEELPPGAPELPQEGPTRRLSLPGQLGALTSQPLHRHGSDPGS
Chain of Sodium-dependent dopamine transporter (Homo sapiens) (Q01959 whole entry): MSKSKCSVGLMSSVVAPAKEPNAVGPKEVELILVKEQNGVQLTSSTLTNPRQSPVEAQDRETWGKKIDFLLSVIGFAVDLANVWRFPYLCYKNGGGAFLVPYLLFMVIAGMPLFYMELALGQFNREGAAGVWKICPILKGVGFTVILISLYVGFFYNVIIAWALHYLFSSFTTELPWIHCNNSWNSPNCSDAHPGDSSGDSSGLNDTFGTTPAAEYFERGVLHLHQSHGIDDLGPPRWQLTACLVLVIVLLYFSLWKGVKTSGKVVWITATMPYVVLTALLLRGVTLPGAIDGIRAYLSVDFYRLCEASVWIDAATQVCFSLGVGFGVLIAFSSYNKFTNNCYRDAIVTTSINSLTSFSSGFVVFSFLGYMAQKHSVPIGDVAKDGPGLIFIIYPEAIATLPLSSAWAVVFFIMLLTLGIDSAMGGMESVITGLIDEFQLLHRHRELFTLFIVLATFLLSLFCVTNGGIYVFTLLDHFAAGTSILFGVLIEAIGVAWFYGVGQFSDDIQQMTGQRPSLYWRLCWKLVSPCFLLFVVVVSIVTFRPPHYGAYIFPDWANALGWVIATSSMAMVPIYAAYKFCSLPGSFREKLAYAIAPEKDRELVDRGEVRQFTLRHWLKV

Turning to `COC(=O)c1c(-c2ccc(C(=O)N(c3ncccc3C)[C@@H]3CCCNC3)cc2)cnn1C`, the EC50 (as a rule, the concentration at which the effect is half-maximal) in [1] was 3.6 µM; in data set [2], over 10 µM; in [3], 8.3 µM; in data set [5], over 50 µM; in the data set on THP-1, over 50 µM. Besides, the Emax (in general, the maximal effect, on the per cent scale that the assay sets) is 220% in the data set with K562 and -35% in [4]. The IC50 (as a rule, the concentration needed to halve the response being measured) in [6] stood at 2.5 µM.
For `O=C(c1ccc(-n2nnc3cccnc32)cc1)N(c1ncccc1Cl)[C@@H]1CCCNC1`, the EC50 in [1] is 4.5 µM; in [2], over 10 µM. Besides, the Emax in the data set on K562 turned out to be 100%.
Turning to `Cc1cnc2c(c1)nnn2-c1ccc(C(=O)N(c2ncccc2Cl)[C@@H]2CCCNC2)cc1`, the values for the EC50 in [1] and in [2] were 1.4 µM and over 10 µM, respectively. The Emax in the data set on K562 was found to be 80%.
Regarding `Cc1ccc2nnn(-c3ccc(C(=O)N(c4ncccc4Cl)[C@@H]4CCCNC4)cc3)c2n1`, the figures for the EC50 in data set [1] and in [2] were 4.4 µM and over 25 µM, respectively. Further, the Emax with K562 turned out to be 155%. The compound also came in with a half-maximal inhibitory concentration (IC50) in data set [6] of 0.9 µM.
Consider `CNc1cncc(-c2ccc(C(=O)N(c3ncccc3Cl)[C@@H]3CCCNC3)cc2)n1`, for which the EC50 was 5.6 µM in [1]; over 10 µM in data set [2]; 6 µM in [3]; over 10 µM in data set [5]; over 10 µM in the data set with THP-1. Also, the Emax with K562 was 100%; in data set [4], -25%. Also, the IC50 in data set [6] was found to be 3.1 µM.
Take `Cc1cccnc1N(C(=O)c1ccc(-c2cnn3cccnc23)cc1)[C@@H]1CCCNC1`: the EC50 was 3.7 µM in data set [1]; over 10 µM in data set [2]; 33 µM in data set [3]; over 50 µM in [5]; over 50 µM in the data set with THP-1. The results for the Emax (with K562; in [4]) were 145% and -41%, respectively. In [6], this compound yielded a half-inhibitory concentration (IC50) of 2.2 µM.
Take `Cc1cnc2c(-c3ccc(C(=O)N(c4ncccc4C)[C@@H]4CCCNC4)cc3F)cnn2c1`: in data set [7], the Papp – broadly, a coefficient for how fast a substance crosses the barrier – stood at 10.1 ×10⁻⁶ cm/s. Further, the half-maximal effective concentration (EC50) in [1] is 7.8 µM; in data set [2], over 10 µM; in data set [3], 2.1 µM; in data set [5] it was over 10 µM; in the data set with THP-1 it was over 10 µM; in [12], 12.7 µM. Also, the concentration giving a half-maximal response (EC50) (in data set [13]; in [14]; at Cannabinoid receptor 1; at D(1A) dopamine receptor; on Histamine H1 receptor; in data set [15]) was over 10 µM in each case. Also, the Emax in the data set with K562 was 100%; in data set [4], -43%. The IC50 was 1.7 µM in data set [6]; 204 µM in data set [10]; over 25 µM in data set [20]; 99 µM in data set [21]; 39 µM in data set [22]; over 200 µM in [23]. Also, the log distribution coefficient (logD) (as a rule, lipophilicity at a set pH, counting ionised and neutral species) in data set [8] is 1.1. Moreover, the solubility (in general, how much of the substance goes into solution per volume) in [9] was found to be 460 µM (≈ 204 µg/mL). In addition, the Ki (usually the dissociation constant of the complex between target and ligand, obtained from inhibition or displacement) in data set [11] was found to be 7.2 µM; in data set [19], 0.4 µM. Further, the Kb in [16], in data set [17] and in [18] was over 10 µM throughout.
For the compound `O=C(c1ccc(-c2cnn3cccnc23)cc1)N(c1nccc2ccccc12)[C@@H]1CCCNC1`, the EC50 in data set [1] was 0.58 µM; in [2], over 10 µM. Also, the Emax in the data set with K562 stood at 206%. The compound also showed an IC50 in data set [6] of 1.3 µM.
Regarding `CN(C)c1cncc(-c2ccc(C(=O)N(c3ncccc3Cl)[C@@H]3CCCNC3)cc2)n1`, the EC50 is over 10 µM in [1]; over 10 µM in [2]; 39 µM in data set [3]; over 50 µM in data set [5]; over 50 µM in the data set on THP-1. Further, the Emax in data set [4] is -41%. Moreover, it took 3 µM to reach half-maximal inhibition in data set [6] (IC50).
For the compound `Cc1cncc(-c2ccc(C(=O)N(c3ncccc3Cl)[C@@H]3CCCNC3)cc2)n1`, the concentration for a half-maximal effect (EC50) was over 10 µM in data set [1]; over 10 µM in [2]; over 30 µM in data set [3]; over 30 µM in data set [5]; over 30 µM with THP-1. Besides, the Emax in [4] is -32%. The compound further returned an IC50 in data set [6] of 2.8 µM.
